# Measured values reported in ChEMBL document CHEMBL1201862, “PubChem BioAssay data set” (2004).
# Activity calls are given as the source filed them.
# What was measured:
# [1] = biological target: T1, High affinity choline transporter 1 (Homo sapiens, UniProt Q9GZV3); test: human choline transporter blockers, potency – cell-based, 5-point CRC, membrane potential dye, dose response (AID 504840); format: functional
# T1 sequence (Q9GZV3 whole entry): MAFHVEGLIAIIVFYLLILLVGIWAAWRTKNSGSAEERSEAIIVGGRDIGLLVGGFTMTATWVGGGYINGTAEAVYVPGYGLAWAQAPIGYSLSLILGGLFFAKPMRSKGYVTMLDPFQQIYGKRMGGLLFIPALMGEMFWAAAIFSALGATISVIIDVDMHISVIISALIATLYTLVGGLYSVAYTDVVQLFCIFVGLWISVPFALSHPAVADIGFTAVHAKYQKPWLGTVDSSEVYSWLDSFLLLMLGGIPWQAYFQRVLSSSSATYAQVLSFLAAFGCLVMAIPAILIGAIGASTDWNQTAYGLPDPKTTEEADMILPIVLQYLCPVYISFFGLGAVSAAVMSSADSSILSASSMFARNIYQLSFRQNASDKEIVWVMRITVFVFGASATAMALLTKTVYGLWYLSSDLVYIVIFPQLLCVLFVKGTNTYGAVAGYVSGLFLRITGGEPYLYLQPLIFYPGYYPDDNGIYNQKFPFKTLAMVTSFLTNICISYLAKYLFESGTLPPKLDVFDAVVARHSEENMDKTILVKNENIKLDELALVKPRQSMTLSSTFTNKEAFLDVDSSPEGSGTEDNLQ
# [2] = tested on: P388/ADR; test: cells; format: functional; conditions: Mus musculus
# [3] = tested on: SN12K1; test: cells; format: functional; conditions: Homo sapiens
# [4] = Luminescence Cell-Based Dose Confirmation HTS to Identify Inhibitors of Platelet Dense Granule Release. [Related pubchem assays: 1663 (Primary HTS), 1678 (Summary of Project)]; format: functional
# [5] = tested on: P388; test: cells; format: functional; conditions: Mus musculus
# [6] = biological target: T1, High affinity choline transporter 1; test: human choline transporter blockers, potency – cell-based, 10-point CRC, membrane potential dye, dose response (AID 588401); format: functional;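 note: membrane potential dye fluorescence of choline-evoked depolarization via CHT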
# [7] = biological target: T2, Serine/threonine-protein phosphatase (Candida dubliniensis (strain CD36 / CBS 7987 / NCPF 3949 / NRRLY-17841) (Yeast), UniProt B9W6M3); test: blockers of CaCl2-induced CDRE-lacZ signaling – S. cerevisiae, luminescence, secondary, dose response (AID 2388); format: functional, cell-based;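 note: yeast reporter cells carrying a calcineurin-responsive lacZ construct stimulated with calcium chloride; luminescent beta-galactosidase reporter signal in whole cells rather than isolated phosphatase activity; potency for inhibition where a drop in reporter signal means calcineurin blockade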
# T2 sequence (B9W6M3 whole entry): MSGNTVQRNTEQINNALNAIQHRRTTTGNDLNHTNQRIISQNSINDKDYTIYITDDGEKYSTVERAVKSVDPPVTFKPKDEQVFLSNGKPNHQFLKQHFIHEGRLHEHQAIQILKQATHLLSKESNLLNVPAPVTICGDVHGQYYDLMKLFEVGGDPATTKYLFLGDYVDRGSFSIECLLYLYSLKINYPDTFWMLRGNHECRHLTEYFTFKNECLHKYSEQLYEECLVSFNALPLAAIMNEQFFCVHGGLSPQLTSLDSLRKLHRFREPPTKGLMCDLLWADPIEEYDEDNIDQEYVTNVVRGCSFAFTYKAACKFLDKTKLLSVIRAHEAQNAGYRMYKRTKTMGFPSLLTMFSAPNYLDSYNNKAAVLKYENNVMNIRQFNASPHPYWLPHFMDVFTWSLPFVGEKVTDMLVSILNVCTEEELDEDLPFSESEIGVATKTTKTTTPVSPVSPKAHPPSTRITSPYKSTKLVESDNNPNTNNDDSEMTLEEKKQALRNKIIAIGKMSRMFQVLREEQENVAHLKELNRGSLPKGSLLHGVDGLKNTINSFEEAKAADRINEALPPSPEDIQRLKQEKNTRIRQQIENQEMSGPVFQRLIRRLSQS
# [8] = biological target: Cytochrome P450 2C19 (Homo sapiens, UniProt P33261); test: Cytochrome panel assay with activity outcomes. Panel member name: p450-cyp2c19 Compounds with AC50 equal or less than 10 uM are considered active; format: functional
# [9] = biological target: ATP-dependent molecular chaperone HSP82 (Candida albicans (strain WO-1) (Yeast), UniProt C4YTQ8); test: steroid-induced GRE reporter decrease in yeast – S. cerevisiae, luminescence, Hsp90 inhibitor project, dose response (AID 2400); format: functional, cell-based;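 note: beta-galactosidase luminescence from glucocorticoid response element reporter as proxy for Hsp90 function; inhibitor potency where signal loss means Hsp90 inhibition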
# [10] = NIH-3T3 fibroblast cytotoxicity, dose response, cytotoxicity control, cell-based, fluorescence, Alamar Blue, secondary assay (AID 2327); format: functional;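 note: NIH-3T3 mouse fibroblasts cultured with fluconazole at 8 µg/mL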
# [11] = fluconazole-exposed Candida albicans growth modulators – fluorescence, retest, confirmation (AID 2467); format: functional, cell-based
# [12] = tested on: Vero; test: viability of Vero cells under compound – cytotoxicity control for flavivirus capping enzyme inhibitors (AID 588742); format: functional; conditions: Chlorocebus sabaeus
# [13] = biological target: T3, Ubiquitin-conjugating enzyme E2 N (Homo sapiens, UniProt P61088); format: functional
# T3 sequence (P61088 whole entry): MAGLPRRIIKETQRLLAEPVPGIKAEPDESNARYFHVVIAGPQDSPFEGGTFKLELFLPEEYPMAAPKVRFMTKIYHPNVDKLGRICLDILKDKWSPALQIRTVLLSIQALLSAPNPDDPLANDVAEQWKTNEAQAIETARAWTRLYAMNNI
# [14] = biological target: T4, Bcl-2-related protein A1 (Mus musculus, UniProt Q07440); format: functional;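 note: confirmatory dose–response counterscreen on Bfl-1, used to check hits from a UBC13 polyubiquitin inhibitor campaign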
# T4 sequence (Q07440 whole entry): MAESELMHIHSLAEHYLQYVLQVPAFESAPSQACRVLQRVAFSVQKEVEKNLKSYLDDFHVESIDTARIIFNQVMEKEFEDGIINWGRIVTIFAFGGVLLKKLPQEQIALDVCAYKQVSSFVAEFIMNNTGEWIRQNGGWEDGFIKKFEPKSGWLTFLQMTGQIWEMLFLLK
# [15] = biological target: T3, Ubiquitin-conjugating enzyme E2 N; format: functional; remark: listed apart in the source
# [16] = biological target: T5, Cytochrome P450 1A2 (Homo sapiens, UniProt P05177);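 note: PubChem cytochrome P450 panel assay, CYP1A2 panel member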
# T5 sequence (P05177 whole entry): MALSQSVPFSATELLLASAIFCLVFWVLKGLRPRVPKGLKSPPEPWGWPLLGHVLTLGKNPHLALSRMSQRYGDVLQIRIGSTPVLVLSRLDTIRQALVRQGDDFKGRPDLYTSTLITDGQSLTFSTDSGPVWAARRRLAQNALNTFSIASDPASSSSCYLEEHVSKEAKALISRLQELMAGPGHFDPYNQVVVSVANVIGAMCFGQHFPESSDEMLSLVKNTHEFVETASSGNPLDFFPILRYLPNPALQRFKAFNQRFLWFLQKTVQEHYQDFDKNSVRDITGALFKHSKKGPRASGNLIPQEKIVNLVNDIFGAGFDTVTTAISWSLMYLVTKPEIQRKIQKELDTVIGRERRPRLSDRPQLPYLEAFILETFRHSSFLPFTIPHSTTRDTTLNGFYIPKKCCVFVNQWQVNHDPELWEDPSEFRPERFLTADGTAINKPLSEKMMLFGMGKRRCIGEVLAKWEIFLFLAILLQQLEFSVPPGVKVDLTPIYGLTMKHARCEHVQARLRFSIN
# [17] = biological target: Genome polyprotein (dengue virus type 2, UniProt P29990); test: flavivirus cap methylation enzyme inhibition – biochemical, confirmation dose response, primary screen (AID 588689); format: functional
# [18] = biological target: Cytochrome P450 2C9 (Homo sapiens, UniProt P11712)
# [19] = biological target: T6, Zinc finger protein mex-5 (Caenorhabditis elegans, UniProt Q9XUB2); test: potency of MEX-5 RNA-binding blockers – biochemical, C. elegans, fluorescence polarization, dose response (AID 1960)
# T6 sequence (Q9XUB2 whole entry): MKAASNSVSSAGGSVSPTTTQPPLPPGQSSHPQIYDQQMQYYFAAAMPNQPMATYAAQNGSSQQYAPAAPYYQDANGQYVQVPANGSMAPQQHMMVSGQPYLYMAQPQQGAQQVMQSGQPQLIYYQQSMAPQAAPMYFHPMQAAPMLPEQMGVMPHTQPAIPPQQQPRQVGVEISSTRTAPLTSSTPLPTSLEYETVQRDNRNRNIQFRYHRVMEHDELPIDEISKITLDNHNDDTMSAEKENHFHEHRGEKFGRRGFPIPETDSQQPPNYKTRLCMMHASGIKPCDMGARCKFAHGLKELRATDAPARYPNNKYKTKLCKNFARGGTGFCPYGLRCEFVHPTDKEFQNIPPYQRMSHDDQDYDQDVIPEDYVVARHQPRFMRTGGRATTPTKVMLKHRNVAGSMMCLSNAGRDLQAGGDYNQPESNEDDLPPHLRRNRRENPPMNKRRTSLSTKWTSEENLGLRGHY
# [20] = biological target: T7, RNA-binding protein pos-1 (Caenorhabditis elegans, UniProt G5EF15); test: disruptors of C. elegans POS-1 RNA interaction – biochemical, fluorescence polarization, dose response (AID 1964);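 note: purified POS-1 fused to maltose binding protein made in E. coli; potency of compounds blocking POS-1 binding to fluorescent RNA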
# T7 sequence (G5EF15 whole entry): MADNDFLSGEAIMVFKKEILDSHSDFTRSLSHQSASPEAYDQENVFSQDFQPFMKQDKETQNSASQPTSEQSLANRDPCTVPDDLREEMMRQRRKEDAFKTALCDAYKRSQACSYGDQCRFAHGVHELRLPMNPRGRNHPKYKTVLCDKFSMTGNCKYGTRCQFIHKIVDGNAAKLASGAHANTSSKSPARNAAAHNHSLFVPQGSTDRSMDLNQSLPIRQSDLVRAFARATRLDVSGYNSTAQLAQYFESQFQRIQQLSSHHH
# [21] = decrease of insulin promoter-GFP reporter – imaging, high-content screening, mouse beta cells (AID 1628); format: functional; conditions: MIN6
# [22] = biological target: T8, Microphthalmia-associated transcription factor (Homo sapiens, UniProt O75030); test: reducers of TRPM1 reporter luminescence, concentration series – cell-based, SK-MEL-5, cherry-picked, set 3, MITF inhibitor project, dose response (AID 493073); format: functional;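 note: SK-MEL-5 melanoma cells with luciferase driven by the MITF target TRPM1 promoter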
# T8 sequence (O75030 whole entry): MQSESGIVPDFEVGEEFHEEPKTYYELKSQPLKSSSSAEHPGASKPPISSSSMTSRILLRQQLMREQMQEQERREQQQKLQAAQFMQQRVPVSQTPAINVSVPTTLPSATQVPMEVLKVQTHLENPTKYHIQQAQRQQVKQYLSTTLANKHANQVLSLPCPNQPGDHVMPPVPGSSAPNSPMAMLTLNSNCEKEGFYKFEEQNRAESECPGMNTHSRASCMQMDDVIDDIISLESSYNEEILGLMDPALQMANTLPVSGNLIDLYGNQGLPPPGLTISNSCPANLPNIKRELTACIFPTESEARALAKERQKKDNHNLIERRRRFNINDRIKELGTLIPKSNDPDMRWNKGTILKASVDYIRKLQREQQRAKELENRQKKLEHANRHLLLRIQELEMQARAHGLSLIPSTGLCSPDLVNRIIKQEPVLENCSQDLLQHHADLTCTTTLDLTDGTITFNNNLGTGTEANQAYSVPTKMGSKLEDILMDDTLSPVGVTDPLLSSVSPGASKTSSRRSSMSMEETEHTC
# [23] = biological target: Heat shock protein HSP 90-alpha (Homo sapiens, UniProt P07900); format: functional, organism-based
# [24] = MIN6 cell viability loss – mouse insulinoma, cytotoxicity control, dose response (AID 2122); format: functional;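 note: confirmatory high-throughput counterscreen run to flag cytotoxic compounds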
# [25] = Trypanosoma cruzi growth suppression in host cells – NIH3T3 host cells, beta-gal luminescence, confirmation (AID 2044); format: functional, cell-based;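 note: intracellular parasites grown in NIH/3T3 mouse fibroblasts as host cells; luminescent beta-galactosidase reporter signal from transgenic T. cruzi replicating inside host cells; inhibitors lower the luminescence signal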
# [26] = tested on: INS1; test: INS-1E survival protection against cytokine death – cell-based, luminescence, retest, dose response (AID 449756); format: functional; conditions: Rattus norvegicus;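 note: cell death triggered by IL-1 beta plus TNF-alpha plus IFN-gamma mixture; protective hits raise ATP signal compared with cytokine alone wells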
# [27] = NIH3T3 cell viability loss – ATP luminescence, mouse fibroblasts, counter-screen, dose response (AID 2010); format: functional, cell-based;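 note: cells exposed to compound for about 90 hours before reading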
# Chain of ATP-dependent molecular chaperone HSP82 (C4YTQ8 whole entry): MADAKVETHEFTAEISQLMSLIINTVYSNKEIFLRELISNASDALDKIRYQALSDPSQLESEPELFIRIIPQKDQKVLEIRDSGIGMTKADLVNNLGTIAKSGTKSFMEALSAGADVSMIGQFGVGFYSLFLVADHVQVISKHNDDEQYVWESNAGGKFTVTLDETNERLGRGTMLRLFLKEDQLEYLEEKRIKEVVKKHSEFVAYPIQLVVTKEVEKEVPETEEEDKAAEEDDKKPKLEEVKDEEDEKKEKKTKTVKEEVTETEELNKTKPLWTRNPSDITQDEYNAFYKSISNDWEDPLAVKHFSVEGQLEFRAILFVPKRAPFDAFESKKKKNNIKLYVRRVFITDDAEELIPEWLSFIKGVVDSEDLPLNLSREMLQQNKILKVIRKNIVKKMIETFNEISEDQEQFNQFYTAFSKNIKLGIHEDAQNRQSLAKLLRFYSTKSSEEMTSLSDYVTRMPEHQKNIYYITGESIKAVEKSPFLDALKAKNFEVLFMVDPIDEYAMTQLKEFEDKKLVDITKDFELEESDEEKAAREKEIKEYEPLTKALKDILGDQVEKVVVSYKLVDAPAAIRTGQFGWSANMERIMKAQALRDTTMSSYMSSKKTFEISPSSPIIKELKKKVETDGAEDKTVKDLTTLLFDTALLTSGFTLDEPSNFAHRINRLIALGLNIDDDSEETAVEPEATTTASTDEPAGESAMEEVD
# Chain of Genome polyprotein (P29990 2492-3391 limits assumed): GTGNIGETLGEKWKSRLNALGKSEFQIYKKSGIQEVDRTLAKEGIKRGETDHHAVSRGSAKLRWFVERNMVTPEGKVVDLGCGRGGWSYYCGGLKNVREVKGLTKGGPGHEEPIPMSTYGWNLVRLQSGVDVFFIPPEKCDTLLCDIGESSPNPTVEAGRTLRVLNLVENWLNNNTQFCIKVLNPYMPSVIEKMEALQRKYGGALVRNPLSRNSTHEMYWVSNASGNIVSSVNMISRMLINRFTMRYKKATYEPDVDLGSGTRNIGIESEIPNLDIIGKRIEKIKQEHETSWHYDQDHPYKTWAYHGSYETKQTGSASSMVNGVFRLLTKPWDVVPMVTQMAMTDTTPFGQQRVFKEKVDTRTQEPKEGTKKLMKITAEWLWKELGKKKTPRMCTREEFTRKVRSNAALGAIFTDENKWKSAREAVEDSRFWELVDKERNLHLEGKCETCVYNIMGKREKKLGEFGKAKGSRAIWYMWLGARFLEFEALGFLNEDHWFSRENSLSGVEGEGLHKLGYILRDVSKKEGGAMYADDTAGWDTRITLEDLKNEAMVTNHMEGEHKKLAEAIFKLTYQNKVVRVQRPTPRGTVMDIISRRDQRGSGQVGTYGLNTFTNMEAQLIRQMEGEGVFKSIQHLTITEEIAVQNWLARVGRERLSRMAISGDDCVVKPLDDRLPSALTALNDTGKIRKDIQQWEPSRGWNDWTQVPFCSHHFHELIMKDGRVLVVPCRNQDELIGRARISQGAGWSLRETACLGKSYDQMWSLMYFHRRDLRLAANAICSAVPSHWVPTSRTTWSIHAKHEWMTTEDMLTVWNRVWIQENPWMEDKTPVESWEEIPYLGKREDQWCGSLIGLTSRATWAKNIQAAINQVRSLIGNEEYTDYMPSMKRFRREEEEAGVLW
# Chain of Cytochrome P450 2C19 (P33261 whole entry): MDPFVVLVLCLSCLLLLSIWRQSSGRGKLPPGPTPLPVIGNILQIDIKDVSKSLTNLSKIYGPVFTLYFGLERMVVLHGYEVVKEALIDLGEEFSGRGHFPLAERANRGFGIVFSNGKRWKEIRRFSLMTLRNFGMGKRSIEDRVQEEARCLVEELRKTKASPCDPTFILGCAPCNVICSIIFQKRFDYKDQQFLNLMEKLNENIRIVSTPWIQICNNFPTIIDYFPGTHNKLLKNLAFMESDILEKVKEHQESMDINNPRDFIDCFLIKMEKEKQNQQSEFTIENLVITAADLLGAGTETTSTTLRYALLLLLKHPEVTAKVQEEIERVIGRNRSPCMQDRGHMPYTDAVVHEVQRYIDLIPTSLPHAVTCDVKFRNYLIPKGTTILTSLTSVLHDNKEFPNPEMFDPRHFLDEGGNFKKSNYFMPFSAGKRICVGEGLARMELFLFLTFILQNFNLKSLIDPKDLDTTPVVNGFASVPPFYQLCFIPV
# Chain of Cytochrome P450 2C9 (P11712 whole entry): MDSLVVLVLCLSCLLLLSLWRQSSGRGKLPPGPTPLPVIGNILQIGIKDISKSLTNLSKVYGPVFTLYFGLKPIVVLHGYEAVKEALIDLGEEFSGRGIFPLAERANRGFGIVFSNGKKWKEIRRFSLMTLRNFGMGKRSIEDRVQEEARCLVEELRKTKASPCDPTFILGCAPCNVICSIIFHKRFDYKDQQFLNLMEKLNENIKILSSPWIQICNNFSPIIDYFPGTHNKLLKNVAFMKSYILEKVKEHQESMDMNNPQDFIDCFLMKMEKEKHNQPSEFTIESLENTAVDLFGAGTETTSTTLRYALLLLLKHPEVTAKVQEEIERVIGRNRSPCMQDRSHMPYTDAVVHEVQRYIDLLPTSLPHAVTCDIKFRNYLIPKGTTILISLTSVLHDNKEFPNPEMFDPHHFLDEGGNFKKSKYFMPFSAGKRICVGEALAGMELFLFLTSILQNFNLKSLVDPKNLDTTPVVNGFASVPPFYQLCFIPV
smiles,measurement,setting,value
Nc1ncnc2c1ncn2C1OC(CO)C(O)C1O (stereo not drawn),IC50,[1],0.588 µM (active)
same,GI50,[2],14.5 µM (inactive)
same,GI50,[3],> 74 µM (inactive)
same,EC50,[4],1.55 µM (active)
same,GI50,[5],16.4 µM (inactive)
same,IC50,[6],0.515 µM (active)
Cc1nnc(NC(=O)CSc2ncnc3c2cnn3-c2ccccc2C)s1,EC50,[7],> 180 µM (inactive)
same,AC50,[8],inconclusive
same,EC50,[9],> 150 µM (inactive)
same,EC50,[10],> 150 µM (inactive)
same,EC50,[11],0.573 µM (active)
CN1CCN(c2oc(Cc3cccc4ccccc34)nc2C#N)CC1,IC50,[1],1.66 µM (active)
same,IC50,[6],4.74 µM (active)
Cc1nn(-c2ccccn2)c2nc(-c3cccs3)cc(C(=O)NCc3ccco3)c12,CC50,[12],> 40 µM (active)
O=C(COC(=O)c1cc(-c2ccc(Cl)s2)nc2ccccc12)NCc1ccco1,CC50,[12],> 40 µM (active)
CC1(C)Cc2c(sc(NC(=O)C(=O)N3CCCC3)c2C(N)=O)CO1,IC50,[13],1.47 µM (active)
same,IC50,[14],> 20 µM (inactive)
same,IC50,[15],9.62 µM (active)
Cn1cncc1C#Cc1c(-c2ccc(S(C)(=O)=O)cc2)sc2ccccc12,IC50,[13],3.37 µM (active)
same,IC50,[14],> 20 µM (inactive)
same,IC50,[15],8.84 µM (active)
COc1cc(/C=N\Nc2ccc([N+](=O)[O-])cc2)ccc1OCC(=O)Nc1ccc(C)c(C)c1,AC50,[16],7.08 µM (inconclusive)
same,IC50,[17],26.3 µM (active)
same,AC50,[18],3.16 µM (inconclusive)
same,CC50,[12],> 40 µM (active)
same,EC50,[19],234 µM (inconclusive)
same,EC50,[20],> 300 µM (not active)
O=C(N/N=C/c1ccc(O)c2ncccc12)c1cccc(Br)c1,IC50,[21],1.67 µM (active)
same,AC50,[22],7.28 µM (active)
same,AC50,[23],3.83 µM (active)
same,EC50,[7],> 180 µM (inactive)
same,IC50,[24],1.68 µM (active)
same,EC50,[25],1.66 µM (active)
same,AC50,[26],1.22 µM (active)
same,EC50,[9],22.2 µM (active)
same,EC50,[27],5.44 µM (active)
same,EC50,[10],> 160 µM (inactive)
same,EC50,[11],0.729 µM (active)
